The source of these data is patent publication US20240226115A1, “AXL INHIBITOR COMPOUNDS” (ARCUS BIOSCIENCES, INC., priority 2021, published 2024).

As usually defined, the pIC50 is the IC50 on a negative log10 scale, so that one unit is a factor of ten. A higher pIC50 goes with a low IC50.

Test [1] has as its target T1, Axl (Homo sapiens, UniProt P30530).
T1 sequence (P30530 26-894): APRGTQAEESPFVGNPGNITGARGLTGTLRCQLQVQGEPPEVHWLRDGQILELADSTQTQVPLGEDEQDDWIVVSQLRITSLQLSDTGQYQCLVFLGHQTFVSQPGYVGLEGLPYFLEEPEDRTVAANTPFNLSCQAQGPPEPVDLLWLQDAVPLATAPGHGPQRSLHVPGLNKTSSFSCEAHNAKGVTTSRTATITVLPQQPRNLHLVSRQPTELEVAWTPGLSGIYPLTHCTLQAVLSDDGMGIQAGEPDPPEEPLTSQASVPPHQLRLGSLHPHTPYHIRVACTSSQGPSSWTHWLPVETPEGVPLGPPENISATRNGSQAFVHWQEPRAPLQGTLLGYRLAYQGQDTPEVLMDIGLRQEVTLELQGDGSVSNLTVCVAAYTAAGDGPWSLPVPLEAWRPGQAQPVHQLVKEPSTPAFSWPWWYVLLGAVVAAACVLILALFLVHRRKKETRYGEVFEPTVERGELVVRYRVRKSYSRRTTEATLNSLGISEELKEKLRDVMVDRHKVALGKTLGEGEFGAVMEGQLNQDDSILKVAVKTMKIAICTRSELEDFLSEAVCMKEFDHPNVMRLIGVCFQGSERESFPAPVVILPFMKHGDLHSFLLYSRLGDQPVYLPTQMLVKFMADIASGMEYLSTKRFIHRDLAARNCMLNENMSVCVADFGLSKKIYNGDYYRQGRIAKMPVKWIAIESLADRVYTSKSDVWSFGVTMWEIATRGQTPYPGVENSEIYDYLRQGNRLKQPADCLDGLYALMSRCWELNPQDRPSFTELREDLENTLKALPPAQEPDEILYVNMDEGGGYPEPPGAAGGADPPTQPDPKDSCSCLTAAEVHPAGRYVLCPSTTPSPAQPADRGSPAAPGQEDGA
The test is described as follows: HTRF KinEASE-TK biochemical potency, AXL. Also on record: purchased Invitrogen. To be noted: 5 nM AXL, 700 μM ATP. The protocol: Purified recombinant human AXL, TYRO3 and MER proteins were purchased from Invitrogen™. 10 nM AXL, 2 nM TYRO3 or MER were incubated with varying concentrations of compounds in 50 mM HEPES, pH 7.4, 10 mM MgCl2, 0.01% BSA, 1 mM DTT and 2% DMSO in a total volume of 20 μl in a 384-well microplate (Corning™ #3640) at RT for 1 h. The AXL, TYRO3 and MER enzymatic reaction was initiated by transferring 10 μl of enzyme and compound mixture into 10 μl of 1.6 μM TK Substrate-biotin (HTRF® KinEASE-TK kit, Cisbio) and 1400 μM ATP pre-incubated in 50 mM HEPES, pH 7.4, 10 mM MgCl2, 0.01% BSA, 1 mM DTT in a 384-well microplate (Corning™ #3640) at RT, giving the final reaction conditions: 5 nM AXL, 1 nM TYRO3 or MER, 800 nM TK Substrate-biotin and 700 μM ATP in 50 mM HEPES, pH 7.4, 10 mM MgCl2, 0.01% BSA, 1 mM DTT and 1% DMSO with varying concentrations of compounds. Following 2 h incubation at RT, the AXL, TYRO3 and MER enzymatic reaction was stopped by transfer of 10 μl of reaction into 10 μl of detection mix (400 nM Streptavidin-XL665, 200-fold dilution TK Antibody-Cryptate and detection buffer, HTRF® KinEASE-TK kit, Cisbio) in a white 384-well microplate (Perkin Elmer, OptiPlate 384). After 1 h incubation at RT, the plate was put into a plate reader (Evision) to read at 665/620 nm (acceptor/donor) for HTRF. The value of the DMSO blank (MIN inhibition=100% activity) was used as a negative control. The positive control was established by adding 5 μl of enzyme and DMSO mixture into 10 μl of detection mix followed by addition of 5 μl of TK Substrate-biotin and ATP mixture (MAX inhibition=0% activity). To calculate the percent activity, Equation 1 was used. Ratio665/620 is the value at a given compound concentration: […]

In test [2] the target is T1, Axl. The test is described as follows: Axl NanoBRET intracellular kinase assay (Cell Binding). To be noted: HEK-293 cells transfected with Axl-NanoLuc fusion vector; displacement of K-5 NanoBRET tracer. Further details: host or cells: HEK-293. The protocol: Axl NanoBRET™ intracellular kinase assay (Promega, N2540) was performed according to manufacturer's recommendation. In brief, HEK-293 cells are transiently transfected with Axl-NanoLuc fusion vector (Promega, NV1071), utilizing Fugene HD transfection reagent (Promega, E2311) a day before experiment following manufacturer's recommendation.
The day of the assay, the cells were collected and resuspended in Opti-MEM media (ThermoFisher, 31985070) at 2e5 cells/mL concentration. Testing compounds were serial diluted and dispensed into a white 384 well polystyrene plate at 200 nL in 100% DMSO. 40 μL of resuspended cells is then added per well for a final condition of 8K cells/well with 0.5% DMSO. After one-hour compound pre-incubation at 37° C. and 5% CO2, cells were further incubated with 0.35 μM K-5 NanoBRET tracer for two-hours at 37° C. and 5% CO2. […] of 3× substrate plus Inhibitor solution was prepared according to kits manual and added to the cells followed by a 30 second pulse centrifugation spin. The plate was then immediately read utilizing an Envision (Perkin Elmer) plate reader. The BRET signal is measured by taking the ratio of the emissions reading at 610 nm and 450 nm. Compound binding is based on the decrease BRET signal caused by the displacement of the K-5 tracer. […] IC50 value of compounds was determined by 4-parameter non-linear regression fitting of percent activity in GraphPad Prism software.

pIC50: −log10 of the molar value.

With `O=C1NCCOc2cc(-c3n[nH]c4ncc(-c5ccc6c(c5)CCC(N5CCCC5)CC6)cc34)ccc21` (racemic) [Example 1, 8-{5-[7-(Pyrrolidin-1-yl)-6,7,8,9-tetrahydro-5H-benzo[7]annulen-2-yl]-1H-pyrazolo[3,4-b]pyridin-3-yl}-2,3,4,5-tetrahydro-1,4-benzoxazepin-5-one], the negative-log IC50 (pIC50) on Axl [1] and at Axl [2] was greater than 7.00 in each case.

Regarding `O=C1NCCOc2cc(-c3n[nH]c4ncc(-c5ccc6c(c5)CC[C@H](N5CCCC5)CC6)cc34)ccc21` (single isomer, unassigned) [Example 56], the pIC50 at Axl [1] and on Axl [2] was greater than 7.00 throughout.

On to `O=C1NCCOc2cc(-c3n[nH]c4ncc(-c5ccc6c(c5)CC[C@@H](N5CCCC5)CC6)cc34)ccc21` (single isomer, unassigned) [Example 57], for which the pIC50 against Axl [1] and on Axl [2] was greater than 7.00 throughout.

Regarding `O=C1NCCOc2cc(-c3n[nH]c4ncc(-c5ccc6c(c5)CCC(N5CCCC5)C6)cc34)ccc21` (centres unmarked) [Example 2, 8-{5-[6-(Pyrrolidin-1-yl)-5,6,7,8-tetrahydronaphthalen-2-yl]-1H-pyrazolo[3,4-b]pyridin-3-yl}-2,3,4,5-tetrahydro-1,4-benzoxazepin-5-one], the pIC50 on Axl [1] and at Axl [2] was greater than 7.00 throughout.

In the case of `O=C1NCCOc2cc(-c3n[nH]c4ncc(-c5ccc6c(c5)CC(N5CCCC5)CC6)cc34)ccc21` (centres unmarked) [Example 3, 8-{5-[7-(Pyrrolidin-1-yl)-5,6,7,8-tetrahydronaphthalen-2-yl]-1H-pyrazolo[3,4-b]pyridin-3-yl}-2,3,4,5-tetrahydro-1,4-benzoxazepin-5-one], the pIC50 against Axl [1] is greater than 7.00; on Axl [2] it was 6.00 to 7.00.

For `O=C1NCCOc2cc(-c3n[nH]c4ncc(-c5ccc6c(c5)CCC(N[C@H]5CCOC5)C6)cc34)ccc21` (stereo partly drawn) [Example 4, 8-[5-(6-{[(3S)—Oxolan-3-yl]amino}-5,6,7,8-tetrahydronaphthalen-2-yl)-1H-pyrazolo[3,4-b]pyridin-3-yl]-2,3,4,5-tetrahydro-1,4-benzoxazepin-5-one], the pIC50 against Axl [1] and on Axl [2] was greater than 7.00 throughout.

Turning to `O=C1NCCOc2cc(-c3n[nH]c4ncc(-c5ccc6c(c5)CCC(N[C@@H]5CCOC5)C6)cc34)ccc21` (stereo partly drawn) [Example 5, 8-[5-(6-{[(3R)—Oxolan-3-yl]amino}-5,6,7,8-tetrahydronaphthalen-2-yl)-1H-pyrazolo[3,4-b]pyridin-3-yl]-2,3,4,5-tetrahydro-1,4-benzoxazepin-5-one], the pIC50 at Axl [1] and at Axl [2] was greater than 7.00 in each case.

As for `C[C@@H]1CCCN1C1CCc2ccc(-c3cnc4[nH]nc(-c5cc(F)c6c(c5)OCCNC6=O)c4c3)cc2CC1` (stereo partly drawn) [Example 6, 6-Fluoro-8-(5-{7-[(2R)-2-methylpyrrolidin-1-yl]-6,7,8,9-tetrahydro-5H-benzo[7]annulen-2-yl}-1H-pyrazolo[3,4-b]pyridin-3-yl)-2,3,4,5-tetrahydro-1,4-benzoxazepin-5-one], the pIC50 at Axl [1] and at Axl [2] was greater than 7.00 each time.

Regarding `O=C1NCCOc2cc(-c3n[nH]c4ncc(-c5ccc6c(c5)CCN(C5CCCC5)CC6)cc34)ccc21` [Example 7, 8-[5-(3-Cyclopentyl-2,3,4,5-tetrahydro-1H-3-benzazepin-7-yl)-1H-pyrazolo[3,4-b]pyridin-3-yl]-2,3,4,5-tetrahydro-1,4-benzoxazepin-5-one], the pIC50 against Axl [1] and at Axl [2] was greater than 7.00 in each case.

As to `O=C1NCCOc2cc(-c3n[nH]c4ncc(-c5ccc6c(c5)CCN(C5CCCC5)C6)cc34)ccc21` [Example 9, 8-(5-(2-Cyclopentyl-1,2,3,4-tetrahydroisoquinolin-6-yl)-1H-pyrazolo[3,4-b]pyridin-3-yl)-3,4-dihydrobenzo[f][1,4]oxazepin-5(2H)-one], the pIC50 against Axl [1] and on Axl [2] was greater than 7.00 in each case.

As to `O=C1NCCOc2cc(-c3n[nH]c4ncc(-c5ccc6c(c5)CN(C5CCCC5)CC6)cc34)ccc21` [Example 10, 8-(5-(2-Cyclopentyl-1,2,3,4-tetrahydroisoquinolin-7-yl)-1H-pyrazolo[3,4-b]pyridin-3-yl)-3,4-dihydrobenzo[f][1,4]oxazepin-5(2H)-one], the pIC50 against Axl [1] was greater than 7.00; at Axl [2], 6.00 to 7.00.

Consider `O=C1NCCOc2cc(-c3n[nH]c4ncc(-c5ccc6c(c5)CCN(C5COC5)CC6)cc34)ccc21` [Example 11, 8-(5-(3-(Oxetan-3-yl)-2,3,4,5-tetrahydro-1H-benzo[d]azepin-7-yl)-1H-pyrazolo[3,4-b]pyridin-3-yl)-3,4-dihydrobenzo[f][1,4]oxazepin-5(2H)-one], for which the pIC50 at Axl [1] was greater than 7.00; on Axl [2], 6.00 to 7.00.

As for `O=C1NCCOc2cc(-c3n[nH]c4ncc(-c5ccc6c(c5)CCN(C5COC5)C6)cc34)ccc21` [Example 12, 8-(5-(2-(Oxetan-3-yl)-1,2,3,4-tetrahydroisoquinolin-6-yl)-1H-pyrazolo[3,4-b]pyridin-3-yl)-3,4-dihydrobenzo[f][1,4]oxazepin-5(2H)-one], the pIC50 was greater than 7.00 at Axl [1] and 6.00 to 7.00 at Axl [2].

On to `COCCN1CCc2cc(-c3cnc4[nH]nc(-c5ccc6c(c5)OCCNC6=O)c4c3)ccc2C1` [Example 13, 8-(5-(2-(2-Methoxyethyl)-1,2,3,4-tetrahydroisoquinolin-6-yl)-1H-pyrazolo[3,4-b]pyridin-3-yl)-3,4-dihydrobenzo[f][1,4]oxazepin-5(2H)-one], for which the pIC50 is greater than 7.00 at Axl [1] and 6.00 to 7.00 on Axl [2].

On to `COCCN1CCc2ccc(-c3cnc4[nH]nc(-c5ccc6c(c5)OCCNC6=O)c4c3)cc2CC1` [Example 15, 8-(5-(3-(2-Methoxyethyl)-2,3,4,5-tetrahydro-1H-benzo[d]azepin-7-yl)-1H-pyrazolo[3,4-b]pyridin-3-yl)-3,4-dihydrobenzo[f][1,4]oxazepin-5(2H)-one], for which the pIC50 on Axl [1] and at Axl [2] was greater than 7.00 in each case.

As for `CC(C)C(=O)N1CCc2ccc(-c3cnc4[nH]nc(-c5ccc6c(c5)OCCNC6=O)c4c3)cc2CC1` [Example 16, 8-{5-[3-(2-Methylpropanoyl)-2,3,4,5-tetrahydro-1H-3-benzazepin-7-yl]-1H-pyrazolo[3,4-b]pyridin-3-yl}-2,3,4,5-tetrahydro-1,4-benzoxazepin-5-one], the figures for the pIC50 at Axl [1] and at Axl [2] were greater than 7.00 and 6.00 to 7.00, respectively.
